In BindingDB's records for doi:10.1016/j.bmcl.2011.02.072 (Bharati Vidyapeeth Deemed University, 2011):

Biological target: T1, Amine oxidase [flavin-containing] A (Homo sapiens, UniProt P21397)
T1 sequence (P21397 whole entry): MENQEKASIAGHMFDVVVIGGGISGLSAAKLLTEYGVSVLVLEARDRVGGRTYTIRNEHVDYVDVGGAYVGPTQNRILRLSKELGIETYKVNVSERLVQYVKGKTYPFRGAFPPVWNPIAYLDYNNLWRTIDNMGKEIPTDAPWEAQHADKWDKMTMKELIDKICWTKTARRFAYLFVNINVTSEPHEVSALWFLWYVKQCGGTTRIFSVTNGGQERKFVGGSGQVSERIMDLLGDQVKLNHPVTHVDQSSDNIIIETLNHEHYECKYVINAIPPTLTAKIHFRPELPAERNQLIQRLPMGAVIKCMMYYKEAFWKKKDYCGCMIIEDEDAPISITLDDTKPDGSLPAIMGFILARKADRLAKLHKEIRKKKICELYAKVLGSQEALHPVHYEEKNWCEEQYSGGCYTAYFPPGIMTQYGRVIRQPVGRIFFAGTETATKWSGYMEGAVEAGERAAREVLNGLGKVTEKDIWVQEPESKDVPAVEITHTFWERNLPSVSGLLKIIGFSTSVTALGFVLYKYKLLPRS
Experiment: […]

Row | Ki [nM] | SMILES
1 | 9.51 | Cn1cccc1C(=O)[C@H](c1ccccc1)N1CCCC1 [1-(1-Methyl-1H-pyrrol-2-yl)-2-phenyl-2-pyrrolidin-1-yl-ethanone (+)-S]
2 | 3.5 | Cn1cccc1C(=O)[C@@H](c1ccccc1)N1CCCC1 [1-(1-Methyl-1H-pyrrol-2-yl)-2-phenyl-2-pyrrolidin-1-yl-ethanone (-)-R]
